One block for each compound: values may come before it.
Legend:
bone marrow = assay: Homing of CFSE labeled bone marrow cells to marrow of irradiated recipient mice; format: in vivo, mouse; details: for effect on SW033291 induced increase of homing: co-administered with SW033291 10 mg/kg IP
Protocol: Drugs are administered following radiation, following the transplant, and again at 8 hours after the transplant.

mouse bone marrow = assay: Hematopoietic colonies from wild-type mouse bone marrow treated ex vivo; format: cell-based; details: 1 μM ex vivo on ice for 2 hours
Source text: Treated marrow is again then plated into methylcellulose for counting of hematopoietic colonies.

[1] = test system: 15-PGDH-luciferase fusion protein reporter in Vaco-9M (V9M) cell line; assay: 15-PGDH-luciferase fusion reporter induction in Vaco-9M (V9M) cells; format: cell-based
Protocol: Some residual activity is seen for isomer B when added at 3.2 μM concentration. The small residual activity of isomer A may be due to possible 3% contamination with some residual isomer B.

recombinant 15-PGDH [2] = molecular target: T1, recombinant 15-PGDH (Homo sapiens (Human), UniProt P15428); assay: Thermal melt shift of recombinant 15-PGDH protein (SYPRO Orange); format: binding
T1 sequence (P15428 whole entry): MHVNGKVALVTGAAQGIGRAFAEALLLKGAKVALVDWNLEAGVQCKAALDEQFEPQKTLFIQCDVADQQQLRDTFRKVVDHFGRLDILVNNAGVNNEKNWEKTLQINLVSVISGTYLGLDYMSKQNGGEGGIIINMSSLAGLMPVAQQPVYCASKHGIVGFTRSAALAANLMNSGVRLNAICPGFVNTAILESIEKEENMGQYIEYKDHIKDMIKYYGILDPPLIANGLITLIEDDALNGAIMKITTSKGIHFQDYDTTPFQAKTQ

recombinant 15-PGDH [3] = molecular target: T1, recombinant 15-PGDH; assay: Inhibition of enzymatic activity of recombinant 15-PGDH in an in vitro assay; format: biochemical; details: FIG. 97
[4] = test system: 15-PGDH-luciferase fusion reporter in V9m, LS174T and V503 colon cancer cell lines; assay: 15-PGDH-luciferase fusion reporter induction in colon cancer cell lines; format: cell-based; details: for luciferase activity of 15-PGDH luciferase fusion cells: V9m, LS174T, V503, relative to DMSO
15-PGDH protein = assay: Western blot of 15-PGDH protein levels in treated cell lines; format: cell-based; details: […] compound for 48 hours
A549 cells = assay: PGE2 levels in medium of IL1-beta stimulated A549 cells; format: cell-based
cell culture = assay: Toxicity: concentration needed to decrease cell numbers in a cell culture assay; format: cell-based
Protocol: Time to inhibition refers to the time needed to inhibit the generation of NADH by 15-PGDH from the moment with drug is added into the reaction mix. Delta Tm refers to the shift in melting temperature of recombinant 15-PGDH in the presence of drug (with cofactor NADH also present). Concentration of Full Cell Line Reporter Induction refers to the concentration of drug that needs to be added to reporter cell line to achieve maximal induction of the 15-PGDH-luciferase gene fusion reporter cassette, as measured by luciferase assays. Hepatocyte stability refers to the half-life of compound in the presence of hepatocytes in culture. Toxicity refers to the concentration of compound needed to decrease cell numbers in a cell culture assay.

[5] = Chemical stability in aqueous solutions; format: physicochemical; details: over broad pH range
cell lines = assay: PGE2 production by cell lines; format: cell-based; details: read-out: EC50 for increase of PGE2 production by cell lines
[6] = Stability when incubated with liver extracts; format: in vitro ADME; details: incubated with mouse, rat and human liver extracts
[7] = Immediate toxicity after IP injection into mice; format: in vivo; details: injected IP into mice at 50 mg/kg body weight
[8] = test system: PGE2 in colon, bone marrow, liver, lung; assay: PGE2 in mouse tissues after IP injection; format: in vivo

Compound: CCCCc1nn(-c2ccccc2C(F)(F)F)c(=O)n1Cc1ccc(-c2ccccc2S(=O)(=O)NC(=O)c2sccc2C)cc1 [L-161,982]
effect on SW033291 induced increase of homing (bone marrow): near completely blocked

Compound: COc1ccc2cc(OCC3(C(=O)O)CN(C(=O)c4ccc(F)cc4)C3)ccc2c1 [PF-04418948]
effect on SW033291 induced increase of homing (bone marrow): partially blocked

Compound: CCCCC[C@H](O)/C=C/[C@H]1[C@H](O)CC(=O)[C@@H]1C/C=C\CCCC(=O)O [PGE2, prostaglandin E2]
increase in number of bone marrow derived colonies relative to SW033291 (mouse bone marrow): lesser increase

Compound: CCCC[S@](C)(O)c1sc2nc(-c3cccs3)cc(-c3ccccc3)c2c1N [SW033291 isomer B]
concentration giving full reporter activity [1]: 0.1 µM
melting temperature of 15-PGDH (recombinant 15-PGDH [2]; Differential Scanning Fluorimetry, DMSO control 50.5° C.): 68 °C
IC50 lower than the parent racemic mixture (recombinant 15-PGDH [3]): 40%

direct binding to 15-PGDH by melting temperature shift (recombinant 15-PGDH [2]; 10 μM and 100 μM cofactor NAD or NADH): cannot be demonstrated to bind 15-PGDH
Compound: COc1ccc(OC)c(N(CC(=O)Nc2cccnc2)S(=O)(=O)c2ccccc2)c1 [SW054384]
luciferase activity of 15-PGDH luciferase fusion cells [4]: increase luciferase activity
levels of 15-PGDH protein (western blot) (15-PGDH protein): increase levels of 15-PGDH protein

Compound: O=C(c1ccc2nc(-c3ccccc3)c(-c3ccccc3)nc2c1)N1CCCCC1 [SW145753]
PGE2 level in medium, reflecting 15-PGDH activity (A549 cells; IL1-beta 23 hours, compound added for last 5 hours): clear inhibition of 15-PGDH activity
luciferase activity of 15-PGDH luciferase fusion cells [4]: increase luciferase activity
levels of 15-PGDH protein (western blot) (15-PGDH protein): increase levels of 15-PGDH protein

Compound: CCCC[S+]([O-])c1sc2nc(-c3cccs3)ccc2c1N (stereo not shown) [SW206980]
Toxicity (cell culture): >7.5 µM
highest PGE2 level achieved in medium (A549 cells; IL-1β 16 h, compound 8 h): 2500 pg/mL

Compound: CCCC[S+]([O-])c1sc2nc(-c3nccs3)ccc2c1N (stereo not shown) [SW206992]
Toxicity (cell culture): >7.5 µM
concentration at which maximal PGE2 effect attained (A549 cells; IL-1β 16 h, compound 8 h): 2.5 µM
highest PGE2 level achieved in medium (A549 cells; IL-1β 16 h, compound 8 h): 2100 pg/mL
Concentration for Full Cell Line Reporter Induction ([4]; concentration to achieve maximal induction of 15-PGDH-luciferase reporter): >1 µM

Compound: CCCC[S+]([O-])c1sc2nc(-c3nccs3)cc(-c3cnc(C)n3C)c2c1N (stereo not shown) [SW209415, 2-(butylsulfinyl)-4-(1,2-dimethyl-1H-imidazol-5-yl)-6-(thiazol-2-yl)thieno[2,3-b]pyridin-3-amine]
increase of homed cells in recipient mouse bone marrow (bone marrow; 10 mg/kg IP, FACS 16 hours post-transplant): approximately 2.5 fold

Compound: CCCCC(C)(C)[C@H](O)/C=C/[C@H]1[C@H](O)CC(=O)[C@@H]1C/C=C\CCCC(=O)O [dmPGE2, 16,16-dimethyl PGE2]
increase in number of bone marrow derived colonies relative to SW033291 (mouse bone marrow): slightly greater increase

Compound: CCCC[S+]([O-])c1sc2nc(-c3nccs3)cc(-c3cnc(C)n3C)c2c1N (stereo not shown) [formula (XIII)]
chemical stability in aqueous solutions [5]: chemically stable in aqueous solutions over broad pH range
homing of hematopoietic stem cells following bone marrow transplantation (bone marrow; mouse, 10 mg/kg body weight): increases homing of hematopoietic stem cells
EC50 (cell lines): ~0.02 µM
chemical stability with liver extracts [6]: chemically stable when incubated with mouse, rat and human liver extracts
immediate toxicity over 24 hours [7]: no immediate toxicity
PGE2 levels in colon, lung, liver and bone marrow ([8]; IP dose of 10 mg/kg body weight): elevates PGE2 levels

Compound: COc1ccc2c(c1)c(CC(=O)O)c(C)n2C(=O)c1ccc(Cl)cc1 [indomethacin]
effect on SW033291 induced increase of homing (bone marrow): near completely blocked

Compound: (+) SW209415
peak PGE2 levels in lung, liver, colon and bone marrow ([8]; IP 0.5, 1.5 or 5 mg/kg, peak at 3 hours): approximately double those of vehicle control

Source: patent US10869871B2, “Compositions and methods of modulating short-chain dehydrogenase activity” (CASE WESTERN RESERVE UNIVERSITY, priority 2013, dated 2020)
